Data reported in ChEMBL document CHEMBL3885861, “Open TG-GATES”.

Species: Rattus norvegicus
Assay: Open TG-GATES - Regimen: Single
Type: toxicity, organism-based, Sprague-Dawley
Set-up: regimen Single, gender Male, age 6 weeks
Details: in vivo, po, route gavage; for APTT / Bas / Eos / Fbg / Hb / Ht / Lym / MCH / MCHC / MCV / Mono / Neu / PT / Plat / RBC / WBC: tissue Blood; for KIDNEY_L / KIDNEY_R / KIDNEY_TOTAL: tissue Kidney; for LIVER: tissue Liver; for ALT / AST / CRE / Cl / DBIL / GLC / IP / LDH / Na / RALB / TBIL / TC / TG / TP / gamma-GTP / BUN: tissue Plasma
[1] = 0 mg/kg, 3 h, dose level Control
[2] = 0 mg/kg, 6 h, dose level Control
[3] = 0 mg/kg, 9 h, dose level Control
[4] = 0 mg/kg, 24 h, dose level Control

## CC/C(=C(\c1ccccc1)c1ccc(OCCN(C)C)cc1)c1ccccc1 [TAMOXIFEN]
[1]
  TERMINAL_BW: 194.3 g
  APTT: 16.9 s
  Bas: 0%
  Eos: 0.8%
  Fbg: 248.6 mg/dL
  Hb: 13 g/dL
  Ht: 39.1%
  Lym: 76%
  MCH: 21.6 pg
  MCHC: 33.2%
  MCV: 65.1 fL
  Mono: 3.6%
  Neu: 19.2%
  PT: 12.2 s
  Plat: 123.1 x10_4/uL
  RBC: 601.8 x10_4/ul
  WBC: 87.4 x10_2/uL
  KIDNEY_L: 0.9 g
  KIDNEY_R: 0.8 g
  KIDNEY_TOTAL: 1.7 g
  LIVER: 8.3 g
  ALT: 47.6 IU/L
  AST: 77.6 IU/L
  CRE: 0.2 mg/dL
  Cl: 106.8 meq/L
  DBIL: 0.02 mg/dL
  GLC: 173.6 mg/dL
  IP: 10.2 mg/dL
  LDH: 69.6 IU/L
  Na: 140.8 meq/L
  RALB: 2.6 g/dL
  TBIL: 0.042 mg/dL
  TC: 86.4 mg/dL
  TG: 94.6 mg/dL
  TP: 5.6 g/dL
  gamma-GTP: 1.4 IU/L
[2]
  TERMINAL_BW: 192.7 g
  APTT: 16.1 s
  Bas: 0%
  Eos: 1%
  Fbg: 261.5 mg/dL
  Hb: 13.2 g/dL
  Ht: 39.6%
  Lym: 69.8%
  MCH: 21.8 pg
  MCHC: 33.4%
  MCV: 65.3 fL
  Mono: 3.2%
  Neu: 25.8%
  PT: 12.1 s
  Plat: 118.7 x10_4/uL
  RBC: 607 x10_4/ul
  WBC: 64.1 x10_2/uL
  KIDNEY_L: 0.8 g
  KIDNEY_R: 0.8 g
  KIDNEY_TOTAL: 1.7 g
  LIVER: 7.8 g
  ALT: 37.8 IU/L
  AST: 73 IU/L
  BUN: 9.8 mg/dL
  CRE: 0.2 mg/dL
  Cl: 110.2 meq/L
  DBIL: 0.015 mg/dL
  GLC: 171.2 mg/dL
  IP: 10 mg/dL
  LDH: 52.2 IU/L
  Na: 142.2 meq/L
  RALB: 2.6 g/dL
  TBIL: 0.0425 mg/dL
  TC: 86.5 mg/dL
  TG: 59 mg/dL
  TP: 5.4 g/dL
  gamma-GTP: 1 IU/L
[3]
  TERMINAL_BW: 194.3 g
  APTT: 16.5 s
  Bas: 0%
  Eos: 1%
  Fbg: 259.6 mg/dL
  Hb: 12.8 g/dL
  Ht: 38.4%
  Lym: 75.2%
  MCHC: 33.4%
  MCV: 64 fL
  Mono: 3%
  PT: 12.2 s
  Plat: 111.1 x10_4/uL
  RBC: 599.4 x10_4/ul
  WBC: 73.7 x10_2/uL
  KIDNEY_L: 0.8 g
  KIDNEY_R: 0.8 g
  KIDNEY_TOTAL: 1.6 g
  LIVER: 7.1 g
  ALT: 42.4 IU/L
  AST: 71.8 IU/L
  BUN: 10.2 mg/dL
  CRE: 0.2 mg/dL
  Cl: 107.2 meq/L
  DBIL: 0.012 mg/dL
  GLC: 184.6 mg/dL
  LDH: 50 IU/L
  Na: 142.8 meq/L
  RALB: 2.5 g/dL
  TBIL: 0.05 mg/dL
  TC: 84.6 mg/dL
  TG: 37.4 mg/dL
  TP: 5.3 g/dL
  gamma-GTP: 1.6 IU/L
[4]
  TERMINAL_BW: 200.5 g
  APTT: 15.5 s
  Bas: 0%
  Eos: 1%
  Fbg: 258.4 mg/dL
  Hb: 13 g/dL
  Ht: 38.9%
  Lym: 70.6%
  MCH: 21.5 pg
  MCHC: 33.5%
  MCV: 64.2 fL
  Mono: 4%
  Neu: 24%
  PT: 12.3 s
  Plat: 116.6 x10_4/uL
  RBC: 605.8 x10_4/ul
  WBC: 89.9 x10_2/uL
  KIDNEY_L: 0.9 g
  KIDNEY_R: 0.9 g
  KIDNEY_TOTAL: 1.8 g
  LIVER: 9.1 g
  ALT: 51.8 IU/L
  AST: 76.2 IU/L
  BUN: 14.6 mg/dL
  CRE: 0.2 mg/dL
  Cl: 107.2 meq/L
  DBIL: 0.012 mg/dL
  GLC: 183.8 mg/dL
  IP: 7.8 mg/dL
  LDH: 69 IU/L
  Na: 142.4 meq/L
  RALB: 2.6 g/dL
  TBIL: 0.034 mg/dL
  TC: 93.2 mg/dL
  TG: 83 mg/dL
  TP: 5.5 g/dL
  gamma-GTP: 1 IU/L
6 mg/kg, 3 h, dose level Low
  TERMINAL_BW: 191.8 g
